Tests used:
[1] = tested on: memory loss associated with sleep deprivation; experiment: Treatment of memory loss associated with sleep deprivation in a subject; type: in vivo; details: nasal spray, effective dose 3× daily in each naris
Description: A subject is admitted to a clinic for a memory loss associated with sleep deprivation. The subject is prescribed a roflumilast composition in a nasal spray device described herein. The subject administers the nasal spray in an effective dose 3× daily in each naris. The nasal spray is characterized by a spray containing a D50 of about 15 μm to about 24 μm, a D90 of from about 30 μm to about […] and where less than about 3% of the droplets in the plume of a spray have a size of less than about 10 μm.

[2] = cited from earlier work

Row | SMILES | memory retention after administration [1] | solubility of theophylline in ethanol ([2]; in ethanol) | solubility of theophylline in water ([2]; in water)
1 | O=C(Nc1c(Cl)cncc1Cl)c1ccc(OC(F)F)c(OCC2CC2)c1 [roflumilast] | improved memory retention |  | 
2 | Cn1c(=O)c2[nH]cnc2n(C)c1=O [theophylline] |  | 14 to 15 mg/mL | 7 to 8 mg/mL

Source: US20260041690A1, “Treatment of Memory Loss with Phosphodiesterase Inhibitors” (Cyrano Therapeutics, Inc., priority 2023, published 2026)
